Results on one compound are retold here after US20220087983A1, “ACTIVATING PYRUVATE KINASE R” (FORMA Therapeutics, Inc., priority 2020, published 2022).

In brackets after ≈: the same amount, converted by molar mass.

Series [1] can be described thus: Phase 1: hematologic and hemolytic parameters in SCD patients. To be noted: single 700 mg dose, 24 h. The format is in vivo, human.
The nature of series [2]: Phase 1: safety, adverse events in healthy volunteers. The format is in vivo, human. How it is done: In this study, SAD/MAD cohorts are randomized (3 to 1) to receive Compound 1 or placebo (P). Compound 1 was evaluated first in 4 healthy SAD cohorts and 4 healthy MAD (14-day dosing period) cohorts. Based on the safety, and PK/PD profile from HS, Compound 1 is then evaluated in 1 SCD SAD cohort and 2 SCD MAD cohorts. Specifically, based on the safety and pharmacokinetic/pharmacodynamics (PK/PD) profile in healthy volunteer studies, Compound 1 is evaluated in patients (pts) with SCD, first in a single dose (SD or SAD) cohort and then in multiple-dose (MD or MAD) cohorts (14-day and 12-week). Safety assessments include AEs, vital signs, ECGs and laboratory parameters. PK/PD blood sampling was performed on Day 1 (SAD/MAD) and Day 14 (MAD) and up to 72 h after the last dose and at the end-of-study visit. PD parameters included 2,3-DPG, ATP, and p50 in all cohorts with additional PD studies (including oxygen scan) performed only in the SCD cohorts. PD parameters included 2,3-DPG, ATP, p50, RBC deformability with controlled deoxygenation and reoxygenation (Lorrca® oxygen scan) and varying osmolality (Lorrca® osmoscan)). To maintain study blind, pt identifiers were removed when needed.
Primary Outcome Measures: • 1. Incidence, frequency, and severity of adverse events (AEs) per CTCAE v5.0 of a single ascending dose and multiple ascending doses of Compound 1 in adult healthy volunteers and SCD patients. Incidence of abnormal laboratory test results (clinical chemistry, endocrine hematology, urinalysis). Change from baseline in vital signs (blood pressure, respiratory rate, heart rate, and oral temperature). […] Area under the plasma concentration-time curve from time zero until last quantifiable time point (AUC0-last) • [Time Frame: Up to 3 weeks of testing] • 6. […]
Among the TEAEs reported in Table 13, TEAEs of grade 2 or less related to Compound 1 in the SAD cohorts included headache (n=1) and transient ventricular tachycardia (n=1), each in a different subject. […] The subject's back-up sample was re-assessed independently, and no lipase elevation was detected.

The next series can be described thus: Permeability Papp (A-B). To be noted: not told. The format is in vitro ADME.
The target of the next series is T1, CYP1A2 (Homo sapiens, UniProt P05177).
T1 construct: from tissue; host or cells: human liver microsomes
T1 sequence (P05177 1-516): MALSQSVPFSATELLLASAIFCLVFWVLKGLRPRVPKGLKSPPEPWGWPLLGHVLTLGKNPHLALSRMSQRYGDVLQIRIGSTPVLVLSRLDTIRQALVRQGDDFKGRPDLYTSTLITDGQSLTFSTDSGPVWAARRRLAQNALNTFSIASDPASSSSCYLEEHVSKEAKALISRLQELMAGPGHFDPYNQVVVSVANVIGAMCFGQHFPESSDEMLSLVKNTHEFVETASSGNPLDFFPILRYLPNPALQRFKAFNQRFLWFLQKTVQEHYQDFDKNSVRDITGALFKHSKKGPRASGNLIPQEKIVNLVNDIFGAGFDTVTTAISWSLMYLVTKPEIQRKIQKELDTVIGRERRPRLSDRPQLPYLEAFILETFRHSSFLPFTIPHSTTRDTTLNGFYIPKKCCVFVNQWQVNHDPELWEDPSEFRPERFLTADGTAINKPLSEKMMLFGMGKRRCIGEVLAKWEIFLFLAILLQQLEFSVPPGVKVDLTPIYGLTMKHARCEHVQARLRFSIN
The experiment in a line: Single substrate DDI assay, reversible CYP inhibition in human liver microsomes. The format is in vitro ADME. (Microsomes from liver hold many membrane-bound enzymes, among them those of drug oxidation.)

Series [3] in a line: Solubility in water or buffered solutions. To be noted: aqueous buffer, pH about 1.07 to about 8.69. The format is physicochemical.
The next series has as its target T2, CYP3A4 (Homo sapiens, UniProt P08684).
T2 construct: from tissue; host or cells: human liver microsomes
The experiment in a line: Single substrate DDI assay, reversible CYP inhibition in human liver microsomes. The format is in vitro ADME.

The next series has as its target wt-PKR (Homo sapiens, UniProt P30613). The experiment in a line: Enzyme assay of PKR kinetics and activation (Example 3). The format is biochemical. To be noted: PEP at or below Km. How it is done:
The ability of Compound 1 to activate PKR in enzyme-based assays was measured.
Tests were conducted in the presence and absence of fructose-1,6-bisphosphate (FBP), a known allosteric activator of PKR.

wt-PKR, sequence (P30613 whole entry): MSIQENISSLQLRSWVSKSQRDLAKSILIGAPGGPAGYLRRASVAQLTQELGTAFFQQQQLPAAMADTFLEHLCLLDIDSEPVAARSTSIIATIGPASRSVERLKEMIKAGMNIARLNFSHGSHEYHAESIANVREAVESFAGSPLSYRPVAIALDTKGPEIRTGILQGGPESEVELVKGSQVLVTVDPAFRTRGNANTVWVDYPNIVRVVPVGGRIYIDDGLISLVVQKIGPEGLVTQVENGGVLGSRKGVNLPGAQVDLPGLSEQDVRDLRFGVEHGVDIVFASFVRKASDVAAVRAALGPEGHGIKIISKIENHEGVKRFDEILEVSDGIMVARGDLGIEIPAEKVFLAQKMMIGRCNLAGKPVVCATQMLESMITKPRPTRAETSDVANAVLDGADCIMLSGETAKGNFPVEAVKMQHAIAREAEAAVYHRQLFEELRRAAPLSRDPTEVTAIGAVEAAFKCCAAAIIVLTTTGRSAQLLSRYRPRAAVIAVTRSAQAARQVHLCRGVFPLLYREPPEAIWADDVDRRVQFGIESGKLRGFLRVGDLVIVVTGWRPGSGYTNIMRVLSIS
T2 sequence (P08684 whole entry): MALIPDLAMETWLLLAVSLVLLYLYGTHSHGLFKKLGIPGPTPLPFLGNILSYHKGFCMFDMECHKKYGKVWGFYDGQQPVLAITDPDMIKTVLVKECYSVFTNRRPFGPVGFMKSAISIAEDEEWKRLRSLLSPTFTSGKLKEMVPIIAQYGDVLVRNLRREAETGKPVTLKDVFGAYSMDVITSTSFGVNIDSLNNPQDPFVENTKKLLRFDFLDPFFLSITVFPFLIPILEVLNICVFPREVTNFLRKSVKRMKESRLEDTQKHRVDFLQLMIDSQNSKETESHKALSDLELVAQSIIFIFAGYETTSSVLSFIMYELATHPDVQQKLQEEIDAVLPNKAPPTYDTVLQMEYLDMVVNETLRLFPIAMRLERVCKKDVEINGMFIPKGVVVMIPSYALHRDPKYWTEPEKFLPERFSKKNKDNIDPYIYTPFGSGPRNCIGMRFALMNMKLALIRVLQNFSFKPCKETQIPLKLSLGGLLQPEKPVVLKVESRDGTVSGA

Consider `O=C([C@H](CO)c1ccccc1)N1CC2=C(C1)CN(S(=O)(=O)c1cnc3c(c1)OCCO3)C2` (single isomer, unassigned) [Compound 1], for which the “mean Hb difference versus placebo” value in series [1] is listed as around 0.9 g/dL. In addition, the “Grade 1 headache incidence” value in series [2] (HS receiving 14 days) worked out at 28%; in series [2] (HS receiving a single dose), 4%. The “serious adverse events or AEs leading to withdrawal” value in series [2] (HV SAD and MAD cohorts) is “No serious adverse events (SAEs) or AEs leading to withdrawal”. The Papp A→B (usually the apparent permeability from the apical to the basolateral side of a cell layer) in the series “Permeability Papp (A-B)” amounted to 5.46 ×10⁻⁶ cm/s. Also, the IC50 at CYP1A2 and against CYP3A4 was above 30 µM each time. Also, the solubility – broadly, the dissolved amount per volume that the medium holds – in series [3] lay in the range of 22 to 25 µg/mL (≈ 48.1 to 54.6 µM). The AC50 (usually the midpoint of the concentration-response curve, whichever way the signal moves) on wt-PKR is below 0.1 µM.
